In US9321742B2, “N1-cyclic amine-N5-substituted biguanide derivatives, methods of preparing the same and pharmaceutical composition comprising the same” (IMMUNOMET THERAPEUTICS INC., priority 2011, dated 2016):

Assays:
[1] = system: HCT116 cells; test: Measurement of effect of inhibiting cancer cell proliferation (MTT); assay type: cell-based; details: Homo sapiens; for GI50: HCT-116, 48 hours; for inhibition at 100 µM: HCT-116, 100 uM, read-out: Cell Growth Inhibition (%) at 100 uM
Text: HCT116 cells derived from human colorectal cancer (commercially available from the Korean Cell Line Bank) were used, and the effect of inhibiting cancer cell proliferation of the biguanide derivative was confirmed by measuring the concentration value (cell growth inhibition concentration, GIC50) at which cell growth was inhibited by 50% using a 3-(4,5-dimethylthiazol-2-yl)-2,5-[…] bromide (MTT) reagent.
First, HCT116 cells were put on a 96-well plate and cultured in a DMEM medium containing 10% fetal bovine serum for 16 hours so that the cellcount in each well was approximately 5,000. Subsequently, to obtain the GIC50 value of each compound, culture media were treated with 100 μM, 25 μM, 6.25 μM, 1.56 μM or 0.39 μM of the compound, and then cultured for 48 hours. At this time, some of the compounds were treated with 200 μM instead of 100 μM. Metformin hydrochloride was used as the control, and the culture media were treated with 25, 12.5, 2.5, 0.5, 0.1 mM metformin hydrochloride, and then tested in the same manner as described in the derivatives synthesized in the examples. In order to determine whether the cells survived after treatment with the compound, MTT was added to the culture media which were then cultured for another 3 hours. Formed formazane crystals were dissolved using dimethyl sulfoxide (DMSO), and the absorbance of the resulting solution was measured at 560 nm. After the 48-hours culture, the ratio of the cell count cultured on a well plate not treated with the compound to the living cell count on a well plate treated with the compounds synthesized in the examples was indicated as cell viability (%) according to each treated concentration. A cell viability curve graph was plotted and the concentration (GIC50) value of the compound at which the growth was inhibited by 50% was calculated to confirm the effect of inhibition of cancer cell proliferation. Also, the cell growth viability (%) when the concentration of the treated biguanide derivative and the metformin hydrochloride as the control were 100 uM was shown.

[2] = system: AMPKα; test: Measurement of AMPK-activation effect (AMPKα Thr172 phosphorylation immunoassay in MCF7 cells); assay type: cell-based, human; details: 24 hours; for AMPK activation effect 50 uM (%) / AMPK activation effect 10 uM (%): relative to untreated cells
Description: MCF7 cells derived from human breast cancer cells (commercially available from the Korean Cell Line Bank) were used, and the AMPK (5′-AMP-activated protein kinase alpha)-activation effect of the biguanide derivative was confirmed using an AMPKα immunoassay kit (Invitrogen, Catalog No. KH00651).
MCF7 cells were cultured in a DMEM medium supplemented with 10% fetal bovine serum. Thereafter, the cultured MCF7 cells were put into a 6-well plate with approximately 5×10^5 cells per well and cultured in an incubator supplied with 5% CO2. Culture media were treated with the derivatives synthesized in the examples at contents of 5, 10 and 50 μM, and then cultured for 24 hours. Metformin hydrochloride was used as the control, and the culture media were treated with 0.05, 0.5, 1, 2, 5 and 10 mM metformin hydrochloride, and then tested in the same manner as described in the derivatives synthesized in the examples. Subsequently, the cells were lysed according to a method presented in the operation manual of the AMPKα immunoassay kit, and 20 μg of a cell lysate was then yielded through protein assay. Thereafter, the AMPK activation effect was obtained by determining the degree of phosphorylation of 172nd threonine residue (Thr172) of the AMPKα from the cell lysate according to the method presented in the operation manual of the AMPKα immunoassay kit. […] A curve graph showing AMPK activation according to the concentration of the treated compounds was plotted based on the obtained AMPKα activation results, the concentration (activation concentration 150, AC150) value of the compound whose AMPK activation reached 150% was calculated using a GraphPad Prism 5.0 program, and the degrees of AMPK activation were obtained when concentrations of the treated biguanide derivatives were 10 μM and 50 μM and the metformin hydrochloride was 50 μM.

Compound | inhibition at 200 µM ([1]; HCT-116, 200 uM, 48 hours, read-out: Cell Growth Inhibition (%) at 200 uM) [%] | GI50 [1] [µM] | melting point [°C] | AMPK activation effect 50 uM (%) [2] [%] | AC150 (concentration at which AMPK activation reached 150%) [2] [µM] | inhibition at 100 µM ([1]; 48 hours) [%] | AMPK activation effect 10 uM (%) [2] [%]
Cl.N=C(NCCc1ccccc1)NC(=N)N1CCCC1 [Example 57, N1-pyrrolidine-N5-(phenethyl)biguanide hydrochloride] | 23.2 | > 200 | 213 to 215 | 391 | 8.1 | – | –
Cl.N=C(NCc1ccc(Br)cc1)NC(=N)N1CCCCC1 [Example 35, N1-piperidine-N5-(4-bromo)benzyl biguanide hydrochloride] | – | 23.2 | 261 to 262 | 150 | 1.1 | 53.8 | 140
Cl.N=C(NCc1ccc(Cl)cc1Cl)NC(=N)N1CCCCC1 [Example 53, N1-piperidine-N5-(2,4-dichloro)benzyl biguanide hydrochloride] | – | 9.1 | 240 to 241 | 831 | 3.5 | 63.7 | 238
Cl.N=C(NCc1ccc(C(F)(F)F)cc1)NC(=N)N1CCC1 [Example 37, N1-azetidine-N5-(4-trifluoromethyl)benzyl biguanide hydrochloride] | – | 39.3 | 260 to 261 | 107 | 24.2 | 23.5 | 100
Cl.N=C(NCc1ccco1)NC(=N)N1CCCC1 [Example 22, N1-pyrrolidine-N5-(furan-2-ylmethyl)biguanide hydrochloride] | – | > 100 | 242 to 243 | 293 | 18.3 | 43.9 | 101
Cl.N=C(NCc1ccc(OC(F)(F)F)cc1)NC(=N)N1CCCCC1 [Example 42, N1-piperidine-N5-(4-trifluoromethoxy)benzyl biguanide hydrochloride] | – | 16.2 | 268 to 269 | 554 | 0.8 | 96.8 | 472
Cl.N=C(NCCc1ccc(Cl)cc1)NC(=N)N1CCCCCC1 [Example 61, N1-azepane-N5-((4-chloro)phenethyl)biguanide hydrochloride] | – | 19.8 | 181 to 183 | – | 0.5 | 94.3 | 1130
Cl.N=C(NCc1ccc(Br)cc1)NC(=N)N1CCCC1 [Example 34, N1-pyrrolidine-N5-(4-bromo)benzyl biguanide hydrochloride] | – | 92.8 | 267 to 268 | 639 | 42.4 | 97.3 | 467
Cl.N=C(NCc1cccc(C(F)(F)F)c1)NC(=N)N1CCCCC1 [Example 7, N1-piperidine-N5-(3-trifluoromethyl)benzyl biguanide hydrochloride] | – | 17.2 | 259 to 260 | 677 | 1.0 | 97.4 | 582
Cl.N=C(NCc1ccc(F)c(F)c1)NC(=N)N1CCCCC1 [Example 52, N1-piperidine-N5-(3,4-difluoro)benzyl biguanide hydrochloride] | – | 76.4 | 230 to 232 | 703 | 3.8 | 46.5 | 327
Cl.N=C(NCCc1ccccc1)NC(=N)N1CCCCC1 [Example 58, N1-piperidine-N5-(phenethyl)biguanide hydrochloride] | – | 43.2 | 235 to 237 | 388 | 6.4 | 32.3 | 167
Cl.N=C(NCc1ccc(Cl)cc1)NC(=N)N1CCCC1 [Example 31, N1-pyrrolidine-N5-(4-chloro)benzyl biguanide hydrochloride] | – | 17.6 | 250 to 251 | 776 | 2.3 | 65.9 | 304
Cl.N=C(NC(=N)N1CCCCCC1)NC1CCCCCC1 [Example 19, N1-azepane-N5-cycloheptyl biguanide hydrochloride] | – | 35.7 | 237 to 238 | 325 | 5.6 | 94.7 | 213
Cl.N=C(NCc1ccc(Cl)cc1)NC(=N)N1CCCCCC1 [Example 33, N1-azepane-N5-(4-chloro)benzyl biguanide hydrochloride] | – | 4.9 | 222 to 223 | 443 | 1.2 | 25.3 | –
Cl.N=C(NC(=N)N1CCCC1)NC1CCCCCC1 [Example 17, N1-pyrrolidine-N5-cycloheptyl biguanide hydrochloride] | – | 41 | 265 to 266 | 612 | 7.9 | 60.8 | 149
Cl.N=C(NCCc1cccs1)NC(=N)N1CCCCC1 [Example 56, N1-piperidine-N5-(thiophene-2-yl)ethyl biguanide hydrochloride] | – | – | 176 to 178 | – | 9.0 | 97.6 | 612
Cl.N=C(NCc1ccc(Cl)c(C(F)(F)F)c1)NC(=N)N1CCCCC1 [Example 45, N1-piperidine-N5-(4-chloro-3-trifluoromethyl)benzyl biguanide hydrochloride] | – | 8.2 | 259 to 261 | 232 | 1.7 | 96.9 | 162
Cl.N=C(NCCc1ccc(F)cc1)NC(=N)N1CCCCCC1 [Example 60, N1-azepane-N5-((4-fluoro)phenethyl)biguanide hydrochloride] | – | 22.4 | 211 to 212 | 721 | 0.7 | 73.7 | 744
CCCCNC(=N)NC(=N)N1CCCCC1.Cl [Example 11, N1-piperidine-N5-butyl biguanide hydrochloride] | – | > 100 | 113 to 114 | 130 | >50 | 42.7 | –
Cl.N=C(NC(=N)N1CCCCC1)NC1CCCCCC1 [Example 18, N1-piperidine-N5-cycloheptyl biguanide hydrochloride] | – | 23.1 | 237 to 238 | 719 | 2.2 | 64.3 | 304
